Data taken from the supplement of paper PMC8671470.

What follows are molecules tested on Mono-Mac-6 (assay: cell viability (% survival relative to DMSO control, bortezomib = 0%); higher = less cytotoxic). Conditions: 10 nM; 72 h.
Outline: (§1)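 In 384-well plates pre-printed with compounds at 1, 10, 100, 1000 or 10000 nM, duplicate wells received cells from 10 AML and 5 CML lines at densities within the linear growth range. The plates stayed at 37 °C with 5% CO2 for 72 h before CellTiter-Glo luminescence was recorded. Each entry is averaged percent survival. Scaling placed vehicle at 100% and a 10 µM positive control at 0%.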
`CC(C)c1nc(CN(C)C(=O)N[C@H](C(=O)N[C@@H](Cc2ccccc2)C[C@H](O)[C@H](Cc2ccccc2)NC(=O)OCc2cncs2)C(C)C)cs1` [Ritonavir] gave a cell viability of 98.6%. `C=C(C)[C@H]1Cc2c(ccc3c2O[C@@H]2COc4cc(OC)c(OC)cc4[C@@H]2C3=O)O1` [Rotenone] gave a cell viability of 96.4%. For `Oc1ccc(Nc2nc(-c3ccc(Cl)cc3)cs2)cc1` [SKI II], the cell viability was 97.8%. Work on `O=C(O)c1cc(N=Nc2ccc(S(=O)(=O)Nc3ccccn3)cc2)ccc1O` [Sulfasalazine] yielded a cell viability of 92.7%.

Same assay, conditions: 100 nM; 72 h
With `CCCCN1C[C@H](O)[C@@H](O)[C@H](O)[C@H]1CO` [Miglustat] the cell viability was 92.4%. In the case of `C=C(C=NNC(=N)N)NNC(=N)N` [Mitoguazone], the cell viability is reported as 85.5%. `CCCCC/C=C\C/C=C\C/C=C\C/C=C\CCCCN1C(=O)C=CC1=O` [N-Arachidonylmaleimide] was tested, and the cell viability was 91.1%. `CCCCCCCCCCC[C@@H](C[C@@H]1OC(=O)[C@H]1CCCCCC)OC(=O)[C@H](CC(C)C)NC=O` [Orlistat] showed a cell viability of 97.7%. With `COc1ccc(C(=O)Nc2c(Cl)cncc2Cl)cc1OC1CCCC1` [Piclamilast] the cell viability was 80.6%. `COc1cc(/C=C/C(=O)N2CCC=CC2=O)cc(OC)c1OC` [Piperlongumine] gave a cell viability of 98.7%. With `O=C(NNc1ccccc1)c1ccncc1` [PluriSln 1] the cell viability was 104%. `CC(C)c1nc(CN(C)C(=O)N[C@H](C(=O)N[C@@H](Cc2ccccc2)C[C@H](O)[C@H](Cc2ccccc2)NC(=O)OCc2cncs2)C(C)C)cs1` [Ritonavir] was tested, and the cell viability was 97.6%. In the case of `C=C(C)[C@H]1Cc2c(ccc3c2O[C@@H]2COc4cc(OC)c(OC)cc4[C@@H]2C3=O)O1` [Rotenone], the cell viability is reported as 76.7%. `Oc1ccc(Nc2nc(-c3ccc(Cl)cc3)cs2)cc1` [SKI II] was tested, and the cell viability was 100%. Work on `O=C(O)c1cc(N=Nc2ccc(S(=O)(=O)Nc3ccccn3)cc2)ccc1O` [Sulfasalazine] yielded a cell viability of 120%.

Same assay, conditions: 1000 nM; 72 h
In the case of `CCCCN1C[C@H](O)[C@@H](O)[C@H](O)[C@H]1CO` [Miglustat], the cell viability is reported as 95.4%. `C=C(C=NNC(=N)N)NNC(=N)N` [Mitoguazone] was tested, and the cell viability was 55.3%. With `CCCCC/C=C\C/C=C\C/C=C\C/C=C\CCCCN1C(=O)C=CC1=O` [N-Arachidonylmaleimide] the cell viability was 107%. `CCCCCCCCCCC[C@@H](C[C@@H]1OC(=O)[C@H]1CCCCCC)OC(=O)[C@H](CC(C)C)NC=O` [Orlistat] showed a cell viability of 103%. With `COc1ccc(C(=O)Nc2c(Cl)cncc2Cl)cc1OC1CCCC1` [Piclamilast] the cell viability was 100%. `COc1cc(/C=C/C(=O)N2CCC=CC2=O)cc(OC)c1OC` [Piperlongumine] was tested, and the cell viability was 86.5%. `O=C(NNc1ccccc1)c1ccncc1` [PluriSln 1] was tested, and the cell viability was 110%. In the case of `CC(C)c1nc(CN(C)C(=O)N[C@H](C(=O)N[C@@H](Cc2ccccc2)C[C@H](O)[C@H](Cc2ccccc2)NC(=O)OCc2cncs2)C(C)C)cs1` [Ritonavir], the cell viability is reported as 88.1%. `C=C(C)[C@H]1Cc2c(ccc3c2O[C@@H]2COc4cc(OC)c(OC)cc4[C@@H]2C3=O)O1` [Rotenone] was tested, and the cell viability was 9.03%. In the case of `Oc1ccc(Nc2nc(-c3ccc(Cl)cc3)cs2)cc1` [SKI II], the cell viability is reported as 93.5%. In the case of `O=C(O)c1cc(N=Nc2ccc(S(=O)(=O)Nc3ccccn3)cc2)ccc1O` [Sulfasalazine], the cell viability is reported as 103%.

Same assay, conditions: 10000 nM; 72 h
In the case of `CCCCN1C[C@H](O)[C@@H](O)[C@H](O)[C@H]1CO` [Miglustat], the cell viability is reported as 92.7%. For `C=C(C=NNC(=N)N)NNC(=N)N` [Mitoguazone], the cell viability was 18.1%. Work on `CCCCC/C=C\C/C=C\C/C=C\C/C=C\CCCCN1C(=O)C=CC1=O` [N-Arachidonylmaleimide] yielded a cell viability of 101%. Work on `CCCCCCCCCCC[C@@H](C[C@@H]1OC(=O)[C@H]1CCCCCC)OC(=O)[C@H](CC(C)C)NC=O` [Orlistat] yielded a cell viability of 87.7%. `COc1ccc(C(=O)Nc2c(Cl)cncc2Cl)cc1OC1CCCC1` [Piclamilast] showed a cell viability of 87.7%. `COc1cc(/C=C/C(=O)N2CCC=CC2=O)cc(OC)c1OC` [Piperlongumine] showed a cell viability of 1.58%. In the case of `O=C(NNc1ccccc1)c1ccncc1` [PluriSln 1], the cell viability is reported as 87.2%. Molecule `CC(C)c1nc(CN(C)C(=O)N[C@H](C(=O)N[C@@H](Cc2ccccc2)C[C@H](O)[C@H](Cc2ccccc2)NC(=O)OCc2cncs2)C(C)C)cs1` [Ritonavir] has a cell viability of 79%. `C=C(C)[C@H]1Cc2c(ccc3c2O[C@@H]2COc4cc(OC)c(OC)cc4[C@@H]2C3=O)O1` [Rotenone] gave a cell viability of 2.24%. Work on `Oc1ccc(Nc2nc(-c3ccc(Cl)cc3)cs2)cc1` [SKI II] yielded a cell viability of 14.3%. Work on `O=C(O)c1cc(N=Nc2ccc(S(=O)(=O)Nc3ccccn3)cc2)ccc1O` [Sulfasalazine] yielded a cell viability of 104%.

What follows are molecules tested on NOMO-1 in the same assay as above. Conditions: 1 nM; 72 h.
Outline: as §1
For `CCCCN1C[C@H](O)[C@@H](O)[C@H](O)[C@H]1CO` [Miglustat], the cell viability was 94.3%. `C=C(C=NNC(=N)N)NNC(=N)N` [Mitoguazone] gave a cell viability of 94.9%. For `CCCCC/C=C\C/C=C\C/C=C\C/C=C\CCCCN1C(=O)C=CC1=O` [N-Arachidonylmaleimide], the cell viability was 95.5%. Molecule `CCCCCCCCCCC[C@@H](C[C@@H]1OC(=O)[C@H]1CCCCCC)OC(=O)[C@H](CC(C)C)NC=O` [Orlistat] has a cell viability of 101%. `COc1ccc(C(=O)Nc2c(Cl)cncc2Cl)cc1OC1CCCC1` [Piclamilast] was tested, and the cell viability was 87.1%. In the case of `COc1cc(/C=C/C(=O)N2CCC=CC2=O)cc(OC)c1OC` [Piperlongumine], the cell viability is reported as 94.9%. For `O=C(NNc1ccccc1)c1ccncc1` [PluriSln 1], the cell viability was 91%. `CC(C)c1nc(CN(C)C(=O)N[C@H](C(=O)N[C@@H](Cc2ccccc2)C[C@H](O)[C@H](Cc2ccccc2)NC(=O)OCc2cncs2)C(C)C)cs1` [Ritonavir] gave a cell viability of 108%. `C=C(C)[C@H]1Cc2c(ccc3c2O[C@@H]2COc4cc(OC)c(OC)cc4[C@@H]2C3=O)O1` [Rotenone] was tested, and the cell viability was 93.9%. In the case of `Oc1ccc(Nc2nc(-c3ccc(Cl)cc3)cs2)cc1` [SKI II], the cell viability is reported as 97.3%. `O=C(O)c1cc(N=Nc2ccc(S(=O)(=O)Nc3ccccn3)cc2)ccc1O` [Sulfasalazine] showed a cell viability of 112%.

Same assay, conditions: 10 nM; 72 h
`CCCCN1C[C@H](O)[C@@H](O)[C@H](O)[C@H]1CO` [Miglustat] gave a cell viability of 98.4%. With `C=C(C=NNC(=N)N)NNC(=N)N` [Mitoguazone] the cell viability was 102%. `CCCCC/C=C\C/C=C\C/C=C\C/C=C\CCCCN1C(=O)C=CC1=O` [N-Arachidonylmaleimide] was tested, and the cell viability was 98.1%. Molecule `CCCCCCCCCCC[C@@H](C[C@@H]1OC(=O)[C@H]1CCCCCC)OC(=O)[C@H](CC(C)C)NC=O` [Orlistat] has a cell viability of 95%. With `COc1ccc(C(=O)Nc2c(Cl)cncc2Cl)cc1OC1CCCC1` [Piclamilast] the cell viability was 104%. `COc1cc(/C=C/C(=O)N2CCC=CC2=O)cc(OC)c1OC` [Piperlongumine] showed a cell viability of 103%. `O=C(NNc1ccccc1)c1ccncc1` [PluriSln 1] showed a cell viability of 101%. `CC(C)c1nc(CN(C)C(=O)N[C@H](C(=O)N[C@@H](Cc2ccccc2)C[C@H](O)[C@H](Cc2ccccc2)NC(=O)OCc2cncs2)C(C)C)cs1` [Ritonavir] showed a cell viability of 88.5%. Work on `C=C(C)[C@H]1Cc2c(ccc3c2O[C@@H]2COc4cc(OC)c(OC)cc4[C@@H]2C3=O)O1` [Rotenone] yielded a cell viability of 109%. Work on `Oc1ccc(Nc2nc(-c3ccc(Cl)cc3)cs2)cc1` [SKI II] yielded a cell viability of 104%. For `O=C(O)c1cc(N=Nc2ccc(S(=O)(=O)Nc3ccccn3)cc2)ccc1O` [Sulfasalazine], the cell viability was 101%.

Same assay, conditions: 100 nM; 72 h
With `CCCCN1C[C@H](O)[C@@H](O)[C@H](O)[C@H]1CO` [Miglustat] the cell viability was 94%. `C=C(C=NNC(=N)N)NNC(=N)N` [Mitoguazone] showed a cell viability of 90.9%.
